From patent publication US20120258960A1, “NOVEL MULTIFUNCTIONAL PEPTIDASE INHIBITORS, ESPECIALLY FOR MEDICAL USE” (IMTM GMBH, priority 2009, published 2012)

Columns and labels:
T lymphocytes = test: Inhibition of proliferation of PHA-stimulated T lymphocytes (tritium thymidine incorporation); format: cell-based; details: Homo sapiens, T-lymphocyte, 1 μg/ml Phytohemagglutinine, 48 hours, test compounds 0.1-250 μM, read-out: T cells IC50
Protocol: (§1) Peripheral blood mononuclear cells (PBMC) from healthy human volunteers were freshly isolated by density gradient centrifugation. T lymphocytes (T cells, Tc) were isolated from PBMC fractions via nylon wool adherence. Cells were cultured in standard cell culture media and stimulated by addition of 1 μg/ml Phytohemagglutinine for 48 hours in 96 well flat-bottom microtitre plates. Test compounds were added at concentration ranges from 0.1-250 μM over the total assay period.
DNA synthesis of proliferating T cells was determined by incorporation of radio labelled tritium thymidine and subsequent radio detection.
(§2) Data output was based on raw data and calculation of relative proliferation response in relation to PHA-activated T cells in the absence of test compound (100% control).
(§3) The […] value of proliferation suppression was assessed by graphical evaluation.

[1] = test system: human peripheral blood mononuclear cells; test: Inhibition of proliferation of PHA-stimulated mononuclear cells (BrdU incorporation); format: cell-based; details: PBMC, 1 μg/ml Phytohemagglutinine, 48 hours, test compounds 0.1-250 μM, read-out: MNC IC50
Protocol: as §1
DNA synthesis of proliferating PBMC was assessed by incorporation of nucleotide analogue bromdesoxyuridine (BrdU) and subsequent detection of optical density (OD) at 450 nm.
as §2, §3

[2] = target: purified, recombinant human DPIV (Homo sapiens, UniProt P27487); test: Measurement of DPIV activity (fluorogenic substrate (Ala-Pro)2-R110)
purified, recombinant human DPIV, sequence (P27487 whole entry): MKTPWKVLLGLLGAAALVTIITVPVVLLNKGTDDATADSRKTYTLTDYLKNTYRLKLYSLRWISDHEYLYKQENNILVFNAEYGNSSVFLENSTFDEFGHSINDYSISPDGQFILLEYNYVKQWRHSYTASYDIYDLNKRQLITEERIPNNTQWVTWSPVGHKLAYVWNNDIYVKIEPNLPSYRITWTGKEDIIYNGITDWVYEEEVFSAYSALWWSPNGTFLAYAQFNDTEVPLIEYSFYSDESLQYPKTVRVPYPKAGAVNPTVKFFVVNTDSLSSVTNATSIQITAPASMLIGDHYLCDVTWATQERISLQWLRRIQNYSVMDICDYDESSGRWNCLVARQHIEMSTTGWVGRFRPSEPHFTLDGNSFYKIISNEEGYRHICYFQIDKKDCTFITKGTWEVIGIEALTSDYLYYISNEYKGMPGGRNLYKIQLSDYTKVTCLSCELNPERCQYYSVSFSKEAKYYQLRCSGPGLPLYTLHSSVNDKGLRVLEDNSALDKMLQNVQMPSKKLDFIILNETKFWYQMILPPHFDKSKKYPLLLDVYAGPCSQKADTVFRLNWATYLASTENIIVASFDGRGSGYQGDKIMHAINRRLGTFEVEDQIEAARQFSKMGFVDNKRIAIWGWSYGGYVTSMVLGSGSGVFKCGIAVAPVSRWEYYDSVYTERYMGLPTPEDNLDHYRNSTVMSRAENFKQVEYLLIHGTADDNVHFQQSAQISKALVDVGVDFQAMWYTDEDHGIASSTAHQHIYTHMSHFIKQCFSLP
Protocol: The enzymatic activity of DPIV was assessed by the hydrolysis of the fluorogenic substrate bis-(L-alanyl-prolyl)-Rhodamin-110 (bis-trifluoracetate, abbreviation (Ala-Pro)2-R110). The final substrate concentration was 0.5 μM.
The assay was performed in white microtitre plates for fluorescence measurements. The test items, substrate and enzyme were diluted in assay buffer. […] As controls, the DPIV activity in the absence of test items as well as the spontaneous hydrolysis of the substrate was determined.

[3] = target: human recombinant Aminopeptidase N (Homo sapiens, UniProt P15144); test: Measurement of APN activity (fluorogenic substrate (Ala)2-R110); format: biochemical; details: human recombinant APN approx. 5 nM, substrate 0.5 μM, pH 7.5
human recombinant Aminopeptidase N, sequence (P15144 whole entry): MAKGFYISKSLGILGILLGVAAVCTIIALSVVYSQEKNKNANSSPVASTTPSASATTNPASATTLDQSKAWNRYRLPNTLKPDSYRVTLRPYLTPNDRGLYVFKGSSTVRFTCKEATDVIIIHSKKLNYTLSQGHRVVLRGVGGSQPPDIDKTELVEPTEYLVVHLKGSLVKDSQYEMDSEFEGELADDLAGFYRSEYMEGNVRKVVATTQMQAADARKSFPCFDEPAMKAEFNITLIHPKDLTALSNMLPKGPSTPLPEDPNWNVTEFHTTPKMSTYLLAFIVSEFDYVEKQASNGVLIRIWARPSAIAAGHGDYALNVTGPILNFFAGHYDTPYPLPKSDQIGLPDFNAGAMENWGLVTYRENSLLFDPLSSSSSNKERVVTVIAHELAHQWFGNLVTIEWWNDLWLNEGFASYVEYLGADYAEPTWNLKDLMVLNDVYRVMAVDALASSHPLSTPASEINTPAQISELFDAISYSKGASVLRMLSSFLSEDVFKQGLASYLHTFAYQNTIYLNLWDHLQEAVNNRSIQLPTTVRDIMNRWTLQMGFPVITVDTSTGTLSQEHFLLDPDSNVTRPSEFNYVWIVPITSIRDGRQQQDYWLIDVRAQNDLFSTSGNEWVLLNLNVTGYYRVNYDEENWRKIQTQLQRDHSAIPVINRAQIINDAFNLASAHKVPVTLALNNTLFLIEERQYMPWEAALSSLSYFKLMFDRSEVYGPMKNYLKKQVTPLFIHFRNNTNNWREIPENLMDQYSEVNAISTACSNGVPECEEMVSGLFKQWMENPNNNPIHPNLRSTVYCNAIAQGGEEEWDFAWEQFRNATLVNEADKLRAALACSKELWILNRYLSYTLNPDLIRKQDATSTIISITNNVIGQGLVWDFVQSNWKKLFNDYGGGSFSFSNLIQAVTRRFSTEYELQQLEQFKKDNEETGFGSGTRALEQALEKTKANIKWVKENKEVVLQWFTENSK
Protocol: Inhibitory effects of test items on the enzymatic activity of human recombinant Aminopeptidase N (final concentration approx. 5 nM) were assessed by using the fluorogenic substrate bis-(L-alanyl)-Rhodamine-110 (bis-trifluoracetate, abbreviation (Ala)2-R110) at a final concentration of 0.5 μM. The assay was performed in 0.05 M TRIS/HCl buffer pH 7.5, supplemented with 0.05% Triton (v/v), 0.05% BSA (w/v), 2 mM MgCl2.
The assay was performed in white microtitre plates for fluorescence measurements.
As controls, (Ala)2-R110 hydrolyzing activity in the absence of any test item as well as the spontaneous substrate hydrolysis was determined.
The release of the fluorescent hydrolysis product Rhodamine 110 was measured at an excitation wavelength of 485 nm and an emission wavelength of 530 nm by using a microtitre fluorescence reader immediately after substrate addition as well as after 30, 60 and 120 min.

IC50 [2] [µM] | IC50 [3] [µM] | SMILES | IC50 (T lymphocytes) [µM] | IC50 [1] [µM]
 |  | CCCC(=O)NC(CC(=O)NCC(C)(C)CNC(=O)C(O)C(Cc1ccccc1)NC(=O)CCC)Cc1cc(F)ccc1F (centres unmarked) [drawing 244] | 53.9 | 54.5
 |  | CC(C)(CNCC(N)Cc1cc(F)ccc1F)CNC(=O)C(O)C(N)Cc1ccccc1 (centres unmarked) [drawing 276] | 30.3 | 30.6
 |  | CCCCCCCCCC(=O)OC(C(=O)NCC(C)(C)CNC(=O)CC(N)Cc1cc(F)ccc1F)C(N)Cc1ccccc1 (centres unmarked) [drawing 254] | 3.1 | 2.5
 |  | NC(CC(=O)NCCNC(=O)C(O)C(N)Cc1ccccc1)Cc1ccccc1 (centres unmarked) [drawing 220] | ≥ 200 | 122
 |  | NC(CC(=O)NC1CCCC(NC(=O)C(O)C(N)Cc2ccccc2)C1)Cc1cc(F)ccc1F (centres unmarked) [drawing 269] | 113 | 200
 |  | CC(C)(CNC(=O)CC(N)C(=O)N1CCSC1)CNC(=O)C(O)C(N)Cc1ccccc1 (centres unmarked) [drawing 236] | ≥ 200 | 200
 |  | CCCCCCCC(=O)NC(CC(=O)NCC(C)(C)CNC(=O)C(O)C(Cc1ccccc1)NC(=O)CCCCCCC)Cc1cc(F)ccc1F (centres unmarked) [drawing 239] | 8.2 | 10.9
 |  | CC(C)(CNC(=O)CC(N)Cc1ccccc1)CNC(=O)CC(O)C(N)Cc1ccccc1 (centres unmarked) [drawing 230] | ≥ 200 | 200
 |  | NC(CC(=O)Nc1cccc(NC(=O)C(O)C(N)Cc2ccccc2)c1)Cc1cc(F)ccc1F (centres unmarked) [drawing 270] | 9.4 | 9.1
 |  | NC(CC(=O)N1CCN(C(=O)C(O)C(N)Cc2ccccc2)CC1)Cc1ccccc1 (centres unmarked) [drawing 223] | 157 | 140
 |  | NC(CC(=O)NCC1(CNC(=O)C(O)C(N)Cc2ccccc2)CCCC1)Cc1cc(F)ccc1F (centres unmarked) [drawing 274] | 12.9 | 16.2
 |  | CC(C)(CNC(=O)C(O)C(N)Cc1ccccc1)CNC(=O)C(CC(=O)O)C(N)Cc1cc(F)ccc1F (centres unmarked) [drawing 262] | 88.3 | 
 |  | NC(CC(=O)NCCCCNC(=O)C(O)C(N)Cc1ccccc1)Cc1cc(F)ccc1F (centres unmarked) [drawing 231] | ≥ 200 | 134
 |  | NC(CC(=O)Nc1ccc(NC(=O)C(O)C(N)Cc2ccccc2)cc1)Cc1cc(F)ccc1F (centres unmarked) [drawing 245] | 14.6 | 14.8
 |  | NC(CC(=O)NCCNC(=O)C(O)C(N)Cc1ccccc1)Cc1cc(F)ccc1F (centres unmarked) [drawing 221] | ≥ 200 | 200
 |  | CCCCCCCC(=O)OC(C(=O)NCC(C)(C)CNC(=O)CC(N)Cc1cc(F)ccc1F)C(N)Cc1ccccc1 (centres unmarked) [drawing 247] | 7.4 | 5.8
 |  | CC(C)(CNC(=O)CC(N)Cc1cc(F)ccc1F)CNC(=O)C(O)C(N)Cc1ccc(-c2ccsc2)cc1 (centres unmarked) [drawing 280] | 6.3 | 4.6
 |  | CC(C)(CNC(=O)CC(N)Cc1cc(F)ccc1F)CNC(=O)C(O)C(N)Cc1ccc(O)cc1 (centres unmarked) [drawing 279] | 37.6 | 43.2
 |  | NC(CNC(=O)c1cccc(NC(=O)C(O)C(N)Cc2ccccc2)c1)Cc1cc(F)ccc1F (centres unmarked) [drawing 277] | 21.4 | 27.2
 |  | NC(CC(=O)NCCCCNC(=O)C(O)C(N)Cc1ccccc1)Cc1ccccc1 (centres unmarked) [drawing 229] | ≥ 200 | 200
 |  | CCCCCC(=O)OC(C(=O)NCC(C)(C)CNC(=O)CC(N)Cc1cc(F)ccc1F)C(N)Cc1ccccc1 (centres unmarked) [drawing 261] | 11.3 | 14.3
 |  | NC(CC(=O)NCCCCNC(=O)C(O)C(N)Cc1ccc(C(=O)O)cc1)Cc1cc(F)ccc1F (centres unmarked) [drawing 251] | 112 | 130
 |  | CC(C)(CCNC(=O)CC(N)Cc1cc(F)ccc1F)CNC(=O)C(O)C(N)Cc1ccccc1 (centres unmarked) [drawing 242] | 157 | 63.3
 |  | CN(CCCNC(=O)OCc1ccccc1)C(=O)C(O)C(N)Cc1ccccc1 (centres unmarked) [drawing 278] | ≥ 200 | 149

IC50 [2] [µM] | IC50 [3] [µM] | SMILES | IC50 (T lymphocytes) [µM] | IC50 [1] [µM]
 |  | NC(CC(=O)NCCCCCNC(=O)C(O)C(N)Cc1ccccc1)Cc1ccccc1 (centres unmarked) [drawing 233] | ≥ 200 | 200
 |  | CN(CCCN(C)C(=O)C(O)C(N)Cc1ccccc1)C(=O)CC(N)Cc1cc(F)ccc1F (centres unmarked) [drawing 238] | 70 | 122
 |  | CN(CCCNC(=O)C(O)C(N)Cc1ccccc1)C(=O)CC(N)Cc1cc(F)ccc1F (centres unmarked) [drawing 243] | ≥ 200 | 157
 |  | CCCCCCCCCCCCCC(=O)OC(C(=O)NCC(C)(C)CNC(=O)CC(N)Cc1cc(F)ccc1F)C(N)Cc1ccccc1 (centres unmarked) [drawing 252] | 2 | 1.9
 |  | CCC(CC)(CNC(=O)CC(N)Cc1cc(F)ccc1F)CNC(=O)C(O)C(N)Cc1ccccc1 (centres unmarked) [drawing 265] | 7.2 | 
 |  | CCC(CC)(CNC(=O)CC(N)Cc1ccccc1)CNC(=O)C(O)C(N)Cc1ccccc1 (centres unmarked) [drawing 228] | 14.8 | 49.1
 |  | CCCC(=O)OC(C(=O)NCC(C)(C)CNC(=O)CC(N)Cc1cc(F)ccc1F)C(N)Cc1ccccc1 (centres unmarked) [drawing 260] | 55.3 | 95.1
 |  | NC(CC(=O)NCC1(CNC(=O)C(O)C(N)Cc2ccccc2)CCC1)Cc1ccccc1 (centres unmarked) [drawing 235] | 157 | 200
 |  | CN(CCCNC(=O)CC(N)Cc1cc(F)ccc1F)C(=O)C(O)C(N)Cc1ccccc1 (centres unmarked) [drawing 246] | ≥ 200 | 
 |  | NC(CC(=O)NC(CCCNC(=O)C(O)C(N)Cc1ccccc1)C(=O)O)Cc1cc(F)ccc1F (centres unmarked) [drawing 241] | 113 | 70
 |  | NC(CC(=O)NCCNC(=O)CC(O)C(N)Cc1ccccc1)Cc1ccccc1 (centres unmarked) [drawing 224] | 157 | 120
 |  | CCCCCCCC(=O)OC(C(=O)N(C)CCCNC(=O)CC(N)Cc1cc(F)ccc1F)C(N)Cc1ccccc1 (centres unmarked) [drawing 250] | 9.5 | 11.1
 |  | NC(CNC(=O)c1cccc(NC(=O)C(O)C(N)Cc2ccc(-c3cccnc3)cc2)c1)Cc1cc(F)ccc1F (centres unmarked) [drawing 285] | 24.3 | 37.8
 |  | NC(CC(=O)NCCCCCCNC(=O)C(O)C(N)Cc1ccccc1)Cc1ccccc1 (centres unmarked) [drawing 234] |  | 200
 |  | NC(CC(=O)N1CCCN(C(=O)C(O)C(N)Cc2ccccc2)CC1)Cc1cc(F)ccc1F (centres unmarked) [drawing 271] | 83.5 | 200
 |  | CCCCCCCCCCCCCC(=O)NC(CC(=O)NCC(C)(C)CNC(=O)C(O)C(Cc1ccccc1)NC(=O)CCCCCCCCCCCCC)Cc1cc(F)ccc1F (centres unmarked) [drawing 264] | 98.7 | 
0.072 | 0.7 | CN(CCCNC(=O)C(O)C(N)Cc1ccccc1)C(=O)CC(N)Cc1cc(F)ccc1F (centres unmarked) [drawing 37] |  | 
1.67 | 0.191 | NC(CC(=O)NCC1(CNC(=O)C(O)C(N)Cc2ccccc2)CCC1)Cc1ccccc1 (centres unmarked) [drawing 29] |  | 
> 50 | > 50 | CCCCCCCCCCCCCCCC(=O)NC(CC(=O)NCC(C)(C)CNC(=O)C(O)C(Cc1ccccc1)NC(=O)CCCCCCCCCCCCCCC)Cc1cc(F)ccc1F (centres unmarked) [drawing 62] |  | 
1.7 | 0.009 | NC(CNC(=O)c1cccc(NC(=O)C(O)C(N)Cc2ccccc2)c1)Cc1cc(F)ccc1F (centres unmarked) [drawing 71] |  | 
3.7 | 1.4 | CC(C)(CNC(=O)C(O)C(N)Cc1ccccc1)CNC(=O)C(CC(=O)O)C(N)Cc1cc(F)ccc1F (centres unmarked) [drawing 56] |  | 
0.6 | 18 | CCCCCCCCCCCC(=O)OC(C(=O)NCC(C)(C)CNC(=O)CC(N)Cc1cc(F)ccc1F)C(N)Cc1ccccc1 (centres unmarked) [drawing 47] |  | 
0.5 | 0.02 | NC(CC(=O)NCCCNC(=O)C(O)C(N)Cc1ccccc1)Cc1cc(F)ccc1F (centres unmarked) [drawing 31] |  | 
